The supplement of paper PMC11061612

Columns and labels:
Experiment in all cases: combination Emax (second highest fraction inhibited in the dose matrix, 72 h); higher = more inhibition; extreme values may be limits of the assay
[1] = system: OVKATE (Ovarian Carcinoma)
Outline: (§1)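 After 24 hours at 37°C and 5% CO2 in 1536-well plates, cells in DMEM/F12 or RPMI plus 10% FBS received two-drug dose matrices for 72 hours. Viability came from CellTiter-Glo 2.0 luminescence and was scaled as inhibition, anchored at 0 by vehicle wells and at 1 by blank wells. Combination Emax is taken as the second-highest inhibition in the matrix, and Bliss excess as the observed combination effect less EA + EB − EA·EB, with EA and EB the single-agent effects.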

MG-63 (Osteosarcoma) = system: MG-63 (Osteosarcoma)
Outline: as §1

[2] = system: BT-474 (Breast Carcinoma)
Outline: as §1

[3] = system: MRK-nu-1 (Breast Carcinoma)
Outline: as §1

[4] = system: COR-L105 (Lung Adenocarcinoma)
Outline: as §1

[5] = system: NTERA-2-cl-D1 (Other Solid Carcinomas)
Outline: as §1

DK-MG (Glioblastoma) = system: DK-MG (Glioblastoma)
Outline: as §1

[6] = system: NCI-H2023 (Non-Small Cell Lung Carcinoma)
Outline: as §1

NCI-H2452 (Mesothelioma) = system: NCI-H2452 (Mesothelioma)
Outline: as §1

[7] = system: NCI-H1648 (Lung Adenocarcinoma)
Outline: as §1

[8] = system: HT-3 (Cervical Carcinoma)
Outline: as §1

[9] = system: JURL-MK1 (Chronic Myelogenous Leukemia)
Outline: as §1

[10] = system: SNU-1 (Gastric Carcinoma)
Outline: as §1

[11] = system: NCI-H1975 (Lung Adenocarcinoma)
Outline: as §1

[12] = system: NCI-H2170 (Squamous Cell Lung Carcinoma)
Outline: as §1

[13] = system: TOV-21G (Ovarian Carcinoma)
Outline: as §1

[14] = system: OCI-M1 (Acute Myeloid Leukemia)
Outline: as §1

[15] = system: SUP-HD1 (Hodgkin's Lymphoma)
Outline: as §1

[16] = system: MDA-MB-175-VII (Breast Carcinoma)
Outline: as §1

[17] = system: NCI-H1944 (Lung Adenocarcinoma)
Outline: as §1

| Compound | combination Emax [1] | combination Emax (MG-63 (Osteosarcoma)) | combination Emax [2] | combination Emax [3] | combination Emax [4] | combination Emax [5] | combination Emax (DK-MG (Glioblastoma)) | combination Emax [6] | combination Emax (NCI-H2452 (Mesothelioma)) | combination Emax [7] | combination Emax [8] | combination Emax [9] | combination Emax [10] | combination Emax [11] | combination Emax [12] | combination Emax [13] | combination Emax [14] | combination Emax [15] | combination Emax [16] | combination Emax [17] |
| --- | --- | --- | --- | --- | --- | --- | --- | --- | --- | --- | --- | --- | --- | --- | --- | --- | --- | --- | --- | --- |
| COc1nnc2ccc(N3CCC(c4ccc(OCCN5CCN(C)C(=O)[C@H]5C)cc4)CC3)nn12 [AZD5153] + CCN(CCO)CCCOc1ccc2c(Nc3cc(CC(=O)Nc4cccc(F)c4)[nH]n3)ncnc2c1 [AZD2811] (first compound max 1 µM, 7x7, partner max 1 µM) | 0.263 | 0.694 | 0.368 | 0.561 | 0.426 | 0.68 | 0.614 | 0.422 | 0.433 | 0.669 | 0.332 | 0.898 | 0.653 | 0.781 | 0.717 | 0.749 | 1 | 0.704 | 0.509 | 0.711 |
| COc1nnc2ccc(N3CCC(c4ccc(OCCN5CCN(C)C(=O)[C@H]5C)cc4)CC3)nn12 [AZD5153] + C[C@@H]1COCCN1C2=NC(=NC(=C2)C3(CC3)[S@](=N)(=O)C)C4=C5C=CNC5=NC=C4 [AZD6738] (first compound max 1 µM, 7x7, partner max 10 µM) | 0.324 | 0.757 | 0.483 | 0.814 | 0.477 | 0.832 | 0.624 | 0.7 | 0.574 | 0.821 | 0.601 | 0.998 | 0.823 | 0.737 | 0.788 | 0.891 | 1 | 0.823 | 0.529 | 0.88 |
| COc1nnc2ccc(N3CCC(c4ccc(OCCN5CCN(C)C(=O)[C@H]5C)cc4)CC3)nn12 [AZD5153] + Cc1c2c(nn1C)CSCc1cc(n(C)n1)CSc1cc(c3ccccc3c1)OCCCc1c(C(=O)O)n(C)c3c-2c(Cl)ccc13 [AZD5991] (first compound max 1 µM, 7x7, partner max 1 µM) | 0.333 | 0.697 | 0.912 | 1 | 0.568 | 0.97 | 0.633 | 0.47 | 0.53 | 0.818 | 0.911 | 0.927 | 0.976 | 0.724 | 0.636 | 0.744 | 1 | 0.946 | 0.553 | 0.594 |
| COc1nnc2ccc(N3CCC(c4ccc(OCCN5CCN(C)C(=O)[C@H]5C)cc4)CC3)nn12 [AZD5153] + Cn1cnc2c(F)c(Nc3ccc(Br)cc3Cl)c(C(=O)NOCCO)cc21 [Selumetinib] (first compound max 1 µM, 7x7, partner max 10 µM) | 0.26 | 0.689 | 0.385 | 0.306 | 0.621 | 0.712 | 0.652 | 0.316 | 0.446 | 0.88 | 0.399 | 1 | 0.71 | 0.72 | 0.405 | 0.775 | 1 | 0.752 | 0.493 | 0.717 |
| Cc1c2c(nn1C)CSCc1cc(n(C)n1)CSc1cc(c3ccccc3c1)OCCCc1c(C(=O)O)n(C)c3c-2c(Cl)ccc13 [AZD5991] + C1CN(CCC1(C(=O)N[C@@H](CCO)C2=CC=C(C=C2)Cl)N)C3=NC=NC4=C3C=CN4 [Capivasertib] (first compound max 1 µM, 7x7, partner max 3 µM) | 0.273 | 0.228 | 0.746 | 1 | 0.248 | 0.529 | 0.86 | 0.299 | 0.253 | 0.906 | 0.307 | 0.729 | 0.613 | 0.623 | 0.415 | 0.634 | 0.115 | 0.777 | 0.488 | 0.344 |
| Cc1c2c(nn1C)CSCc1cc(n(C)n1)CSc1cc(c3ccccc3c1)OCCCc1c(C(=O)O)n(C)c3c-2c(Cl)ccc13 [AZD5991] + C=CCn1c(=O)c2cnc(Nc3ccc(N4CCN(C)CC4)cc3)nc2n1-c1cccc(C(C)(C)O)n1 [AZD1775] (first compound max 1 µM, partner max 1 µM) | 0.428 | 0.395 | 0.469 | 1 | 0.454 | 0.82 | 0.821 | 0.603 | 0.623 | 0.796 | 0.631 | 0.999 | 0.6 | 0.677 | 0.749 | 0.732 | 0.921 | 0.82 | 0.216 | 0.737 |
| Cc1c2c(nn1C)CSCc1cc(n(C)n1)CSc1cc(c3ccccc3c1)OCCCc1c(C(=O)O)n(C)c3c-2c(Cl)ccc13 [AZD5991] + CC1(C)CCC(CN2CCN(c3ccc(C(=O)NS(=O)(=O)c4ccc(NCC5CCOCC5)c([N+](=O)[O-])c4)c(Oc4cnc5[nH]ccc5c4)c3)CC2)=C(c2ccc(Cl)cc2)C1 [Venetoclax] (first compound max 1 µM, 7x7, partner max 1 µM) | 0.147 | 0.199 | 0.351 | 1 | 0.181 | 0.916 | 0.613 | 0.205 | 0.305 | 0.748 | 0.597 | 0.695 | 0.933 | 0.378 | 0.237 | 0.209 | 0.175 | 0.959 | 0.152 | 0.214 |
| Cc1c2c(nn1C)CSCc1cc(n(C)n1)CSc1cc(c3ccccc3c1)OCCCc1c(C(=O)O)n(C)c3c-2c(Cl)ccc13 [AZD5991] + CCN(CCO)CCCOc1ccc2c(Nc3cc(CC(=O)Nc4cccc(F)c4)[nH]n3)ncnc2c1 [AZD2811] (first compound max 1 µM, 7x7, partner max 1 µM) | 0.253 | 0.232 | 0.442 | 1 | 0.262 | 0.821 | 0.839 | 0.333 | 0.452 | 0.748 | 0.907 | 0.901 | 0.551 | 0.485 | 0.655 | 0.4 | 0.285 | 0.787 | 0.288 | 0.35 |
| Cc1c2c(nn1C)CSCc1cc(n(C)n1)CSc1cc(c3ccccc3c1)OCCCc1c(C(=O)O)n(C)c3c-2c(Cl)ccc13 [AZD5991] + CN(C)CCCOc1ccc(-c2ccc3ncc4c(c3c2)n(C2CCOCC2)c(=O)n4C)cn1 [AZD0156] (first compound max 1 µM, 7x7, partner max 1 µM) | 0.247 | 0.251 | 0.306 | 1 | 0.258 | 0.589 | 0.754 | 0.426 | 0.372 | 0.701 | 0.479 | 0.734 | 0.584 | 0.599 | 0.317 | 0.161 | 0.203 | 0.617 | 0.209 | 0.259 |
| Cc1c2c(nn1C)CSCc1cc(n(C)n1)CSc1cc(c3ccccc3c1)OCCCc1c(C(=O)O)n(C)c3c-2c(Cl)ccc13 [AZD5991] + C[C@@H]1COCCN1C2=NC(=NC(=C2)C3(CC3)[S@](=N)(=O)C)C4=C5C=CNC5=NC=C4 [AZD6738] (first compound max 1 µM, 7x7, partner max 10 µM) | 0.421 | 0.491 | 0.334 | 1 | 0.511 | 0.928 | 0.707 | 0.814 | 0.579 | 0.865 | 0.907 | 1 | 0.794 | 0.664 | 0.683 | 0.798 | 0.973 | 0.891 | 0.259 | 0.928 |
| Cc1c2c(nn1C)CSCc1cc(n(C)n1)CSc1cc(c3ccccc3c1)OCCCc1c(C(=O)O)n(C)c3c-2c(Cl)ccc13 [AZD5991] + C[C@@H](Nc1cc(F)cc(F)c1)c1cc(C(=O)N(C)C)cc2c(=O)cc(N3CCOCC3)oc12 [AZD8186] (first compound max 1 µM, 7x7, partner max 3 µM) | 0.353 | 0.357 | 0.594 | 1 | 0.238 | 0.682 | 0.849 | 0.377 | 0.357 | 0.844 | 0.482 | 0.629 | 0.652 | 0.431 | 0.275 | 0.253 | 0.0662 | 0.659 | 0.313 | 0.282 |
| C[C@@H]1COCCN1c1cc(C2([S@](C)(=N)=O)CC2)nc(-c2ccnc3[nH]ccc23)n1 [AZD6738] + O=C(c1cc(Cc2n[nH]c(=O)c3ccccc23)ccc1F)N1CCN(C(=O)C2CC2)CC1 [Olaparib] (first compound max 10 µM, 7x7, partner max 10 µM) | 0.305 | 0.674 | 0.218 | 0.621 | 0.581 | 0.894 | 0.316 | 0.846 | 0.469 | 0.689 | 0.697 | 0.996 | 0.777 | 0.354 | 0.71 | 0.538 | 0.982 | 0.725 | 0.352 | 0.745 |
